Experimental data reported in publication PMC5989765, “The safety, tolerability, and pharmacokinetic profile of GSK2838232, a novel 2nd generation HIV maturation inhibitor, as assessed in healthy subjects” (Pharmacology Research & Perspectives, 2018).
“Also recorded” adds a separate entry of the source. Like-named read-outs stand apart in the source and are kept apart here.

Experiments:
[1] = Pharmacokinetics in healthy subjects, statements across the Phase I studies; type: in vivo, human; conditions: for half-life: human, plasma, oral
Procedure: (§1) Blood samples were taken via an indwelling cannula or by direct venipuncture, collected into a di‐potassium ethylenediaminetetraacetic acid (K2 EDTA) tube, and placed on wet ice. Samples were centrifuged at approximately 1500g for 10 minutes at approximately 4°C. Exactly 500 μL of the resulting plasma was transferred into labeled 1.4 mL Matrix TrakMate Tubes containing exactly 500 μL of 50 mmol/L citrate buffer, pH 4.0, and mixed well. When 500 μL of plasma was not able to be transferred, the ratio of plasma to citrate buffer was kept at 1:1. Buffered plasma samples were kept on ice and frozen at −70°C within 1 hour of collection. Plasma samples were analyzed for GSK2838232 using a validated analytical method based on protein precipitation, followed by high performance liquid chromatography with tandem mass spectrometry (HPLC/MS/MS) analysis.
(§2) Extracts were analyzed using HPLC (Shimadzu, Nexera, 30 series) and tandem mass spectrometry detection (HPLC‐MS/MS). The mass spectrometer used was an API‐5500 using IonSpray interface (500 V) in positive mode monitoring. The mass transitions were 809.5 to 255.1 and 816.5 to 262.1 for GSK2838232 and [2H7] GSK2838232 (the isotopically labeled internal standard), respectively. The chromatographic conditions utilized a Waters Acquity UPLC BEH C18 column (50 × 2.1 mm, 1.7 μm) with mobile phases consisting of 1 mmol/L ammonium formate:formic acid (100:0.005) (mobile phase A) and acetonitrile:formic acid (100:0.1) (mobile phase B) at a flow rate of 0.6 mL/min, with pump B at 63% held for 2 minutes. The assay was validated to have precision (%RSD) of 0.7%‐6.5% (within‐run) and 1.0%‐5.9% RSD (between‐run) and with accuracy (%bias) of 0.0%‐1.6%. […] The lower limit of quantification (LLQ) was 0.5 ng/mL, using a 50 μL aliquot of K2EDTA acidified plasma. The higher limit of quantification (HLQ) was 500 ng/mL.
(§3) The PK parameters were calculated by standard noncompartmental analysis based on actual sampling times using WinNonlin Version 6.3 or higher. Estimation of AUC used the linear up/log down trapezoidal rule.

[2] = Safety and tolerability in healthy subjects across the four Phase I studies; type: in vivo, human
Procedure: Each one of the four studies described were conducted and completed at a single center in the United States (Parexel International, Baltimore, MD) per the ethical principles of “good clinical practice” (GCP) and the Declaration of Helsinki after obtaining a written informed consent from each subject. The protocols and amendments were approved by Aspire Investigational Review Board (Santee, California, USA).
Other screening assessments included 24‐hour Holter monitoring and baseline echocardiograms.
Nonclinical evaluation in short duration toxicology studies initially gave rise to potential cardiovascular signals which were minimal, appeared sporadically, and were not reproduced in longer term studies. Consequently, there was intensive and extensive cardiovascular monitoring at baseline and post‐dosing, including continuous Holter monitoring and regular cardiac troponin laboratory assessments in these early Phase I studies along with a high degree of vigilance for any findings and/or reported AEs of potential cardiovascular origin.

[3] = preclinical; cited from earlier work
[4] = Study 204953 Part 2: repeat dosing for 11 days with RTV QD or 200 mg BID unboosted; type: in vivo, human; conditions: for CL/F / Cmax / AUC / half-life: geometric mean (95% CI); for Cmax / Tmax / AUC / concentration at 24 h / half-life / concentration at 12 h: human, plasma, oral; for AUC: read-out: AUC(0‐τ); for half-life: read-out: t½ (converted); for dose proportionality (C max and AUC): repeat QD dosing 20‐200 mg with RTV for 11 days, PiB or capsules
Procedure: This study was planned as an extension of the previously conducted single‐ and multiple‐dose escalation studies described above. It was a double‐blind, placebo‐controlled, single and repeat dose escalation study of micronized API GSK2838232 with RTV conducted in three parts (Part 1A, Part 1B, and Part 2).
In Part 2, GSK2838232 was given to separate cohorts as once‐daily 20, 50, 100, and 200 mg doses with RTV for 11 days, with GSK2838232 and RTV dosing starting at the same time (i.e., no RTV predosing). GSK2838232 was administered as PiB for the 20 and 50 mg cohorts and as the capsule formulation for the 100 and 200 mg cohorts. Another separate cohort of subjects received GSK2838232 alone (i.e., unboosted) at a dose of 200 mg twice‐daily (BID; given every 12 hours) for 11 days using the capsule formulation to assess trough concentrations without RTV co‐administration.
as §1, §2, §3

[5] = Study Day 11, 20 mg QD + RTV (PiB), Study 204953
[6] = Study Day 11, 50 mg QD + RTV (PiB), Study 204953
[7] = Study Day 11, 100 mg QD + RTV (capsules), Study 204953
[8] = Study Day 11, 200 mg QD + RTV (capsules), Study 204953
[9] = 200 mg, Study Day 11, 200 mg bid without RTV (capsules), Study 204953
[10] = relative to first dose following predosing ritonavir to steady‐state

In the case of `CC(C)C1=C2[C@H]3CC[C@@H]4[C@@]5(C)CC[C@H](OC(=O)CC(C)(C)C(=O)O)C(C)(C)[C@@H]5CC[C@@]4(C)[C@]3(C)CC[C@@]2([C@@H](O)CN(CCN(C)C)Cc2ccc(Cl)cc2)CC1=O` [GSK2838232], the positive food effect ([1]; capsule formulation discussion) is reported as “about 1.5 fold”, the “metabolite detected in human plasma” value ([1]; co‐administration with RTV) is reported as “O‐glucuronide” and the absorption with food ([1]; fed state (moderate or high fat meal)) is reported as “delayed and more variable”. For the same compound, the “increase in AUC with food” value ([1]; fed versus fasted) was ~ 60%, the “increase in C max with food” value ([1]; fed versus fasted) was ~ 60% and the half-life ([1]; nonboosted) was about 17 h. The half-life ([1]; with RTV) was about 34 h, the “dose proportionality of AUC and C max” value ([1]; single doses without RTV, 5‐100 mg (SDD, fasted)) was “proportional PK; also recorded: proportional to dose; also recorded: proportional pharmacokinetics” and the “cardiovascular toxicities / events related to study drug” value ([2]; healthy subjects) was “no cardiovascular toxicities were deemed related to study drug administration; also recorded: none were considered definitively related to GSK2838232”. The adverse events ([2]; healthy subjects, all dose regimens, up to 250 mg) was “few mild adverse events (AEs) with similar frequencies to placebo; also recorded: Few adverse events (AEs) were reported across all dose regimens”, the “drug‐related AEs” value ([2]; healthy subjects, four studies) was “no clearly identified drug‐related AEs” and the “changes in hematology or clinical chemistry laboratory values, including liver function tests” value ([2]; healthy subjects, exception one subject with gallstones (not treatment‐related)) was “no clinically significant changes”. For the same compound, the “AEs assessed with a reasonable likelihood of being drug‐related” value ([2]; infrequently reported) was “headache and dizziness”, the safety and tolerability ([2]; single doses up to 250 mg with 100 mg RTV, repeat doses up to 200 mg with 100 mg RTV for 11 days) was “good safety and tolerability profile” and the metabolism pathways [3] was “Phase I oxidation (primarily by cytochrome P450 [CYP] 3A4) and Phase II glucuronidation”. For the same compound, the “urinary excretion of drug‐related material” value [3] was at most 1 % administered dose, the “steady‐state C24 as multiple of PA‐IC90” value ([4]; 200 mg BID unboosted, PA‐IC90 5 ng/mL) was ~ 8 fold and the “steady‐state C24 of 200 mg BID without RTV compared with 50 mg QD with RTV” value ([4]; Study 204953) was “similar”. The CL/F [4, 5] was 44.5 (29.5, 67.3) L/h, the CL/F [4, 6] was 46.0 (35.7, 59.2) L/h and the CL/F [4, 7] was 41.5 (30.7, 56.1) L/h. For the same compound, the CL/F [4, 8] was 49.8 (30.3, 81.9) L/h, the CL/F ([4]; Study Day 11, 200 mg bid without RTV (capsules), Study 204953) was 269 (182, 399) L/h and the Cmax ([4]; 20 mg, Study day 1, 20 mg QD + RTV (PiB), Study 204953) was 11.1 ng/mL. For the same compound, the Tmax ([4]; 20 mg, Study day 1, 20 mg QD + RTV (PiB), Study 204953, median (range)) was 3.74 h, the AUC ([4]; 20 mg, Study day 1, 20 mg QD + RTV (PiB), τ = 24 hours, Study 204953) was 175 ng·h/mL and the concentration at 24 h ([4]; 20 mg, Study day 1, 20 mg QD + RTV (PiB), τ = 24 hours, Study 204953, median (range), read-out: Cτ) was 6.09 ng/mL. The Cmax ([4]; 50 mg, Study day 1, 50 mg QD + RTV (PiB), Study 204953) was 17.1 ng/mL, the Tmax ([4]; 50 mg, Study day 1, 50 mg QD + RTV (PiB), Study 204953, median (range)) was 2.5 h and the AUC ([4]; 50 mg, Study day 1, 50 mg QD + RTV (PiB), τ = 24 hours, Study 204953) was 265 ng·h/mL. The concentration at 24 h ([4]; 50 mg, Study day 1, 50 mg QD + RTV (PiB), τ = 24 hours, Study 204953, median (range), read-out: Cτ) was 11.1 ng/mL, the Cmax ([4]; 100 mg, Study day 1, 100 mg QD + RTV (capsules), Study 204953) was 46.2 ng/mL and the Tmax ([4]; 100 mg, Study day 1, 100 mg QD + RTV (capsules), Study 204953, median (range)) was 2.25 h. The AUC ([4]; 100 mg, Study day 1, 100 mg QD + RTV (capsules), τ = 24 hours, Study 204953) was 635 ng·h/mL, the concentration at 24 h ([4]; 100 mg, Study day 1, 100 mg QD + RTV (capsules), τ = 24 hours, Study 204953, median (range), read-out: Cτ) was 22.7 ng/mL and the concentration at 24 h ([4]; 200 mg, 200 mg BID unboosted, read-out: steady‐state C24 mean concentration) was 39 ng/mL. For the same compound, the Cmax [4, 9] was 96.1 ng/mL, the half-life [4, 9] was 19.4 h and the Tmax ([4]; 200 mg, Study Day 11, 200 mg bid without RTV (capsules), Study 204953, median (range)) was 3.76 h. It also gave an AUC ([4]; 200 mg, Study Day 11, 200 mg bid without RTV (capsules), τ = 12 hours, Study 204953) of 742 ng·h/mL, a concentration at 12 h ([4]; 200 mg, Study Day 11, 200 mg bid without RTV (capsules), τ = 12 hours, Study 204953, median (range), read-out: Cτ) of 38.4 ng/mL and a Cmax ([4]; 200 mg, Study day 1, 200 mg QD + RTV (capsules), Study 204953) of 75 ng/mL. For the same compound, the Tmax ([4]; 200 mg, Study day 1, 200 mg QD + RTV (capsules), Study 204953, median (range)) was 2.25 h, the AUC ([4]; 200 mg, Study day 1, 200 mg QD + RTV (capsules), τ = 24 hours, Study 204953) was 1060 ng·h/mL and the concentration at 24 h ([4]; 200 mg, Study day 1, 200 mg QD + RTV (capsules), τ = 24 hours, Study 204953, median (range), read-out: Cτ) was 40.1 ng/mL. The Cmax ([4]; 200 mg, Study day 1, 200 mg bid without RTV (capsules), Study 204953) was 48.5 ng/mL, the Tmax ([4]; 200 mg, Study day 1, 200 mg bid without RTV (capsules), Study 204953, median (range)) was 3.74 h and the AUC ([4]; 200 mg, Study day 1, 200 mg bid without RTV (capsules), τ = 12 hours, Study 204953) was 267 ng·h/mL. The concentration at 12 h ([4]; 200 mg, Study day 1, 200 mg bid without RTV (capsules), τ = 12 hours, Study 204953, median (range), read-out: Cτ) was 20 ng/mL, the Cmax [4, 5] was 25.3 ng/mL and the half-life [4, 5] was 19.8 h. For the same compound, the Tmax ([4]; Study Day 11, 20 mg QD + RTV (PiB), Study 204953, median (range)) was 5.98 h, the AUC ([4]; Study Day 11, 20 mg QD + RTV (PiB), τ = 24 hours, Study 204953) was 449 ng·h/mL and the concentration at 24 h ([4]; Study Day 11, 20 mg QD + RTV (PiB), τ = 24 hours, Study 204953, median (range), read-out: Cτ) was 17 ng/mL. For the same compound, the Cmax [4, 6] was 56.6 ng/mL, the half-life [4, 6] was 20.5 h and the Tmax ([4]; Study Day 11, 50 mg QD + RTV (PiB), Study 204953, median (range)) was 3.75 h. The AUC ([4]; Study Day 11, 50 mg QD + RTV (PiB), τ = 24 hours, Study 204953) was 1090 ng·h/mL, the concentration at 24 h ([4]; Study Day 11, 50 mg QD + RTV (PiB), τ = 24 hours, Study 204953, median (range), read-out: Cτ) was 40.8 ng/mL and the Cmax [4, 7] was 130 ng/mL. It also gave a half-life [4, 7] of 17.7 h, a Tmax ([4]; Study Day 11, 100 mg QD + RTV (capsules), Study 204953, median (range)) of 3.25 h and an AUC ([4]; Study Day 11, 100 mg QD + RTV (capsules), τ = 24 hours, Study 204953) of 2410 ng·h/mL. The concentration at 24 h ([4]; Study Day 11, 100 mg QD + RTV (capsules), τ = 24 hours, Study 204953, median (range), read-out: Cτ) was 89.3 ng/mL, the Cmax [4, 8] was 225 ng/mL and the half-life [4, 8] was 18 h. The Tmax ([4]; Study Day 11, 200 mg QD + RTV (capsules), Study 204953, median (range)) was 3.25 h, the AUC ([4]; Study Day 11, 200 mg QD + RTV (capsules), τ = 24 hours, Study 204953) was 4010 ng·h/mL and the concentration at 24 h ([4]; Study Day 11, 200 mg QD + RTV (capsules), τ = 24 hours, Study 204953, median (range), read-out: Cτ) was 142 ng/mL. For the same compound, the “reduction of Day 1 AUC without ritonavir predosing” value [4, 10] was about 25%, the “reduction of Day 1 C max without ritonavir predosing” value [4, 10] was about 25% and the “dose proportionality (C max and AUC)” value [4] was “proportional PK; also recorded: dose proportional”. For the same compound, the “dose proportionality (C max and AUC)” value ([4]; listed as GSK2383232) was “proportional pharmacokinetics”.
